In experiment [1] the test system is HIF-1 (HIF-dependent luciferase reporter, U2OS-HRE-luc cells). Nature of the experiment: HIF-1-dependent luciferase reporter assay, U2OS-HRE-luc. It counts as cell-based, human. The protocol: (§1) The ability of P1–P3 to disrupt HIF-1 function in cells was assessed using a HIF-1-dependent luciferase reporter assay.[15],[21] The assay uses human osteosarcoma U2OS cells, stably transfected with a HIF-dependent luciferase reporter construct (U2OS-HRE-luc), where activation of HIF results in an increase in luciferase expression.[15]
(§2) Endogenous HIF-1 luciferase reporter assays were conducted as previously reported in U2OS-HRE-luc[15] and MCF-7 cells.[46] For plasmid-expressed HIF-α luciferase reporter assays, MCF-7 and U2OS cells were transiently transfected with plasmids expressing HIF-1α, HIF-2α, or a blank control (pcDNA3.1-HIF-1α, pcDNA3.1-HIF-2α, or pcDNA3.1), a renilla-encoding control (phRL-TK), and a HIF-dependent firefly luciferase reporter construct (pGL2-TK-HRE), using Transfast (Promega) according to the manufacturer’s instructions. After 24 h, cells were recovered and plated (4000 cells/well) in 96-well plates (Perkin-Elmer) and incubated for 5 h before either hypoxic or aerobic incubation in presence or absence of cyclic peptide inhibitors. Firefly and renilla activities were determined using Dual-Glo Reagent (Promega) according to the manufacturer’s instructions. The luciferase signal was normalized using the corresponding renilla values.
Cells were treated with the stated concentrations of inhibitor (P1, P2, or P3) and incubated in normoxia for 4 h, followed by incubation in a hypoxic environment. All manipulation of cell pellets (e.g., lysis, mRNA, and protein extraction) was conducted in a hypoxic environment.

Experiment [2] relates to HIF-1 (HIF-dependent luciferase reporter, MCF-7 breast cancer cells). Nature of the experiment: HIF-1-dependent luciferase reporter assay, MCF-7. It counts as cell-based. The following applies: MCF-7, 100 μM. The protocol: as §1
as §2, with “values. […]” for “values.”
A general note: A reporter such as luciferase makes a cellular process visible.

A further experiment relates to MCF-7 cells. In words: CyQUANT cell proliferation assay, MCF-7. It counts as cell-based. The settings on record: 1 μM, positive control, 72 h. On the procedure:
Sulforhodamine B cytotoxicity assay […]
incubated in hypoxia for 24h.
O.D. value of the experimental set.
CyQUANT cell proliferation assay
The cells were incubated for 5 hours and then treated with Tamoxifen or P1. After 24, 48 or 72 hours, the media was […]
C35006) following the manufacturers instructions. Fluorescence measurements were […]
Workman, P.; Ashcroft, M. Cancer Res 2005, 65, 4918.

A further experiment deals with His-HIF-1α1–350. Nature of the experiment: Fluorescent binding assay, HIF-1α. The settings on record: fluorescence at 680 nm, Ni2+-coated plate, 5 µL of 100 µM solution in 95 µL buffer, 1 hour, room temperature.
The next experiment deals with His-HIF-2α1–351. In words: Fluorescent binding assay, HIF-2α. The following applies: fluorescence at 680 nm, Ni2+-coated plate, 5 µL of 100 µM solution in 95 µL buffer, 1 hour, room temperature.
In a further experiment the target is T1, PAS-B domain of HIF-1α (Homo sapiens, UniProt Q16665).
T1 construct: Per-ARNT-Sim-B (PAS-B, amino acids 235–350) domains; His (N); made in house; host or cells: E. coli BL21(DE3)
Nature of the experiment: Fluorescent binding assay, PAS-B. The following applies: fluorescence at 680 nm, Ni2+-coated plate.

The test system of the next experiment is bHLH domain of HIF-1α. In words: Fluorescent binding assay, bHLH. The following applies: fluorescence at 680 nm, Ni2+-coated plate.
Another experiment relates to PAS-A domain of HIF-1α. In words: Fluorescent binding assay, PAS-A. The settings on record: fluorescence at 680 nm, Ni2+-coated plate.
Experiment [3] relates to HIF-1α/HIF-1β protein–protein interaction. Nature of the experiment: HIF-1 bacterial reverse two-hybrid system (RTHS), SICLOPPS-expressed cyclic peptides, drop-spotting. It counts as cell-based. The following applies: E. coli HIF-1 RTHS, cyclic peptide expressed from SICLOPPS plasmid, 10-fold serial dilutions, compared with the other potential inhibitors. An excerpt: We used our genetically encoded high-throughput screening platform[23]−[25] to identify inhibitors of the HIF-1α/HIF-1β protein–protein interaction. We built and verified the function of a HIF-1 bacterial reverse two-hybrid system (RTHS, for a detailed description see the Supporting Information and Figures S1–S3). The HIF-1 RTHS was used to screen a plasmid-encoded SICLOPPS (split intein circular ligation of peptides and proteins)[26],[27] library of 3.2 million cyclic hexapeptides for HIF-1 dimerization inhibitors.
After the first round of screening, 120 surviving colonies were observed and subjected to several rounds of secondary screening to eliminate false positives and nonselective inhibitors, leaving 12 potential HIF-1 dimerization inhibitors that were ranked by drop-spotting.
The HIF-1 RTHS, associated control RTHS, and SICLOPPS library were constructed as detailed in the Supporting Information. Electrocompetent cells of the HIF-1 RTHS were prepared and transformed with the C+5 SICLOPPS plasmid library. Transformation efficiency, assessed by plating 10-fold serial dilutions of the recovery solution on LB agar supplemented with chloramphenicol (35 μg/mL), was consistently found to be ∼5 × 10^7, thus ensuring adequate coverage of the 3.2 × 10^6 member cyclic peptide library. Transformants were washed with minimal media and plated onto minimal media agar plates supplemented with ampicillin (50 μg/mL), spectinomycin (25 μg/mL), kanamycin (50 μg/mL), 3-AT (7.5 μM), IPTG (100 μM), L-arabinose (6.5 μM), and chloramphenicol (35 μg/mL). The plates were incubated for 2–3 days at 37 °C until individual colonies were visible. Colonies were picked and restreaked onto LB agar plates containing ampicillin (50 μg/mL), spectinomycin (25 μg/mL), and chloramphenicol (35 μg/mL) and incubated overnight at 37 °C.
Surviving colonies from these plates were grown overnight and assessed by drop-spotting 10-fold serial dilutions onto minimal media plates, supplemented with antibiotics, IPTG and 3-AT as above, with and without 6.5 μM L-arabinose. […]

Experiment [4] deals with U2OS-luc control cell line stably expressing luciferase. Nature of the experiment: Control constitutive luciferase reporter, U2OS-luc. It counts as cell-based, human. An excerpt: Figure S3: Identification of cyclic peptide HIF-1 inhibitors. (A) SICLOPPS expression is induced by arabinose, which processes to give a member of the cyclic peptide library. A dimerization inhibitor would be expected to rescue growth of the HIF-1 RTHS on selective media plates containing IPTG, kanamycin and 3-amino-triazole, and arabinose. (B) The ability of the selected cyclic peptides to […]
HIF-1 RTHS containing the corresponding SICLOPPS plasmid onto selective media. In the absence of arabinose the SICLOPPS split-intein is not produced; the HIF-1 RTHS containing plasmids encoding […]
colonies show survival on selective media plates containing IPTG and arabinose (panel 2). Expressing the 3 selected cyclic peptides from mutant SICLOPPS inteins (H24A, F26A mutations in the C- […]
cyclic form of the peptides and their activity. […]
expressing a constitutive luciferase reporter construct. […]

Experiment [5] has as its system HIF-2 (HIF-dependent luciferase reporter, MCF-7 cells). Nature of the experiment: HIF-2 luciferase reporter assay, MCF-7. It counts as cell-based. The following applies: MCF-7, transfected HIF-2α.
From the text: (§3) In addition, P1 had no effect on VEGF protein levels in hypoxic 786-O cells (Figure 6B). To further probe the effect of P1 on HIF-2, a luciferase reporter assay was developed and used. The assay was derived from the HIF-1 luciferase reporter assay detailed above (Figure 2C and D) and adapted for HIF-2 by replacing the plasmid encoding HIF-1α with the equivalent plasmid encoding HIF-2α. […] P2 and P3 also had no effect on HIF-2 in this assay (Figure S9).
as §2

Experiment [6] concerns HIF-2 (HIF-dependent luciferase reporter, U2OS cells). In words: HIF-2 luciferase reporter assay, U2OS. The settings on record: transfected HIF-2α. It counts as cell-based, human.
From the text: as §3, §2

Entries after “also recorded” stand apart in the source; their conditions may differ.

T1 sequence (Q16665 235-350): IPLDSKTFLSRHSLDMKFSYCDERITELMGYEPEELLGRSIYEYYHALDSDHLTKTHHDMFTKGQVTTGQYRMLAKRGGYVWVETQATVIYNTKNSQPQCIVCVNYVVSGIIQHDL

With “CGRKKRRQRRRPPQ [Tat-tag, Tat-tag alone, control, reference compound]”, the “effect on luciferase signal, Tat-tag alone” value was “did not affect the luciferase signal” in experiment [1] (U2OS, 100 μM) and “did not affect the luciferase signal” in experiment [2].

Consider `CC/C(=C(\c1ccc(O)cc1)c1ccc(OCCN(C)C)cc1)c1ccccc1` [4-hydroxytamoxifen, reference compound], for which the “proliferation of MCF-7 cells” value in the experiment on MCF-7 cells is “inhibited proliferation; also recorded: arrests cell division”.

Consider “Megastokes dye 673-triazole-(cyclo-ALLFVY) (head to tail) [fluorescent derivative of cyclo-CLLFVY, propargylalanine derivative of cyclo-CLLFVY click-linked to azide-Megastoke dye 673]”, for which the “binding to His-HIF-1α1–350” value with His-HIF-1α1–350 is on record as “observed binding”. Also, the “binding to His-HIF-2α1–351” value with His-HIF-2α1–351 is listed as “close to background levels”. Further, the “binding to PAS-B domain of HIF-1α” value on PAS-B domain of HIF-1α was “binds the PAS-B domain of HIF-1α”. For the same compound, the “binding to bHLH domain of HIF-1α” value in the experiment on bHLH domain of HIF-1α was “close to background level”. For the same compound, in the experiment with PAS-A domain of HIF-1α, the “binding to PAS-A domain of HIF-1α” value is given as “close to background level”.

Consider cyclo-CLLFVY (head to tail), for which the “activity ranking by drop-spotting in HIF-1 RTHS” value (“activity ranking” for short) in [3] is on record as “significantly more active than the others”.

“Tat-cyclo-CLLRMY (head to tail) [P3, cyclo-CLLRMY tagged with Tat peptide via a disulfide bond]”: in experiment [1] (U2OS-HRE-luc, hypoxia (1% O2)), the “effect on luciferase reporter in hypoxia” value is listed as “did not show an effect”. Also, the “effect on luciferase reporter in normoxia (basal)” value in experiment [1] (U2OS-HRE-luc, normoxia) is reported as “did not show an effect”. The “effect on constitutive luciferase signal” value in [4] is given as “do not affect”. Further, the “effect on HIF-2 luciferase reporter signal” value in experiment [5] and in [6] was “do not affect” in each case.

Turning to cyclo-CRLMVL (head to tail), the “activity ranking” value in experiment [3] is “significantly more active than the others”.

In the case of cyclo-CLLRMY (head to tail), the “activity ranking” value in experiment [3] was “significantly more active than the others”.

(Values after paper PMC3715890, “A Cyclic Peptide Inhibitor of HIF-1 Heterodimerization That Inhibits Hypoxia Signaling in Cancer Cells” (Journal of the American Chemical Society, 2013).)
